Patent publication US12462378B2, “Information processing device, screening device, information processing method, screening method, and program” (Kyoto University, priority 2019, dated 2025)
Where a SMILES comes first, the peptide text is derived from it. The star is where a group is joined. Cbz = O=C(OCc1ccccc1)*; CH2F = FC*

Legend:
[1] = test system: nerve cells differentiated from iPS cells; assay: Single cell analysis (single cell RNA sequence, UMAP clustering) of nerve cells with Z-VAD-FMK; type: cell-based, human
Experimental: FIG. 15 is a view showing the schematics of a proposed method. As illustrated in the drawing, Z-VAD-FMK is added to nerve cells and changes in gene expression of individual cells are observed before cell death occurs (before caspase-3 activation occurs) (single cell RNA sequence=WHAT in the drawing). At the same time, the images are acquired, and the CNN-based prediction model MDL is used to check where the changes are occurring (WHERE in the drawing). In this manner, a method for identifying the molecules, where and what is occurring before cell death, is proposed.
Single cell analysis was performed using the above-described proposed method. FIG. 16 is a view illustrating an example of clustering results of cells. While changing the concentration of Z-VAD-FMK added to the nerve cells to 0 [μM], 0.2 [μM], and 25 [μM], the cell population was separated into a total of 15 types of clusters ranging from 0 to 14 by using a visualization method (one type of dimensional compression method) which is called UMAP (uMAP).
FIG. 22 is a view illustrating a relationship between the Z-VAD-FMK concentration and the cluster size. […] As a result, the cluster 12 was identified as a cluster that satisfies the conditions.

[2] = test system: nerve cells differentiated from iPS cells; assay: Prediction model MDL score of nerve cell images versus Z-VAD-FMK concentration; type: cell-based, human; conditions: FIG. 14, higher score = greater probability that the cell will survive
Excerpt: Activated caspase-3 in apoptotic nerve cells was detected by using a fluorogenic substrate consisting of a four-amino acid peptide DEVD (SEQ ID NO: 1) bound to a nucleic acid binding dye (product name “CellEvent Caspase-3/7 Green Detection Reagent”, Thermo Fisher Scientific Inc.). Since the DEVD peptides inhibit the binding of fluorescent dyes to DNA, the above-described fluorogenic substrate is essentially non-fluorescent. However, when activated caspase-3 in dead cells cleaves the DEVD peptide, a fluorescent dye binds to the DNA to cause fluorescence, which can be detected using a standard FITC green filter set of a standard time lapse imaging system (product name “Incucyte ZOOM”, Essen Bioscience, Ltd.) (exposure time 400 ms). Images were photographed over time every 6 hours after drug administration.
The original size of the single-well image captured by using the time lapse imaging system (product name “Incucyte ZOOM”, Essen Bioscience, Ltd.) was 1,392×1,038 pixels, and four images were cut out from this image and extracted as the cropped image IMGC. The original image was divided evenly into four regions, and square images were taken out from the center of each region. The size of the trimmed cropped image IMGC was selected from 128×128, 256×256, 512×512, 768×768, and 1,020×1,020 in width×height. […]

COC(=O)C[C@H](NC(=O)[C@H](C)NC(=O)[C@@H](NC(=O)OCc1ccccc1)C(C)C)C(=O)CF [Z-VAD-FMK] (Cbz-Val-Ala-Asp(OMe)-CH2F)
effect of Z-VAD-FMK concentration on cluster shapes of UMAP expanded cell populations ([1]; 0, 0.2 and 25 μM Z-VAD-FMK, 15 clusters (0 to 14), FIGS. 16 to 21): no effect on most of the cell populations | cluster size (number of cells in cluster 12, caspase-3 activated) ([1]; cluster 12, with addition of Z-VAD-FMK, FIG. 22): the number of cells in its own cluster decreased with the addition of Z-VAD-FMK | score of the prediction model MDL (probabilistic value related to the life or death of cells) [2]: the higher the Z-VAD-FMK concentration, the higher the score
